25 compounds from patent US8658646B2, “Pyrrolopyrazine kinase inhibitors” (Hoffmann-LaRoche Inc., priority 2011, dated 2014) can be followed below.

For test [1], the target named is T1, JAK3: Recombinant human kinase domain (Homo sapiens, UniProt P52333).
T1 construct: JAK3: Recombinant human kinase domain from Millipore (Cat #14-629) or prepared; purchased Millipore 14-629
As to the kind of experiment: Determination of IC50 of Janus Kinase (JAK) inhibition, radioactive end-point 33P-ATP assay, JAK3. The test is classed as biochemical. The following applies: ATP 1.5 uM, peptide 50 uM, 20 minutes, read-out: JAK3-INHIB-DR/v1~NO ADDITIVE~Enzyme_Conc = 100.
Description: Determination of IC50 of Janus Kinase (JAK) Inhibition:
Assay conditions used are described below: • Assay Buffer: JAK Kinase Buffer: 50 mM Hepes [pH 7.2], 10 mM MgCl2, 1 mM DTT, 1 mg/ml BSA. The assay was carried out in this buffer. • Assay Format The kinase activity of all three JAK kinases was measured using a radioactive, end-point assay and with trace amounts of ^33P-ATP. The assays were carried out in 96-well polypropylene plates. Experimental Method:
All concentrations were final in the reaction mixture and all incubations were carried at room temperature. […] Final concentration of DMSO in the reaction was 10%. • 2) Compounds were preincubated with enzyme (0.5 nM JAK3 (commercially available), 0.2 nM JAK3 (prepared), 1 nM JAK2, 5 nM JAK1) for 10 minutes. • 3) Reactions were initiated by the addition of a cocktail of the two substrates (ATP and peptide premixed in the JAK Kinase Buffer). […] JAK1 assay was carried out at an ATP concentration of 10 uM and a peptide concentration of 50 uM. • 4) The duration of the assay for JAK2 and JAK3 is 20 minutes. JAK1 assay was carried out for 40 minutes. With all three enzymes, reactions were terminated by the addition of 0.5M EDTA to a final concentration of 100 mM. • 5) 25 ul of terminated reactions were transferred to 150 ul of a 7.5% (v/v) slurry of streptavidin-coated sepharose beads in MgCl2- and CaCl2-free 1× Phosphate Buffered Saline containing 50 mM of EDTA in 96-well, 1.2 um MultiScreen-BV filter plates. • 6) After a 30-minute incubation, the beads were washed under vacuum with the following buffers: • a. 3 to 4 washes with 200 ul of 2M NaCl. • b. 3 to 4 washes with 200 ul of 2M NaCl plus 1% (v/v) phosphoric acid. • c. 1 wash with water. • 7) Washed plates were dried in a 60° C. oven for between 1 to 2 hours. • 8) 70 ul of Microscint 20 scintillation fluid was added to each well of filter plates and after at least 30 minutes of incubation, radioactive counts were measured in a Perkinelmer microplate scintillation counter.

The target in test [2] is T2, recombinant human SYK360-635 (Homo sapiens, UniProt P43405).
T2 construct: made in house
As to the kind of experiment: Determination of IC50 of Spleen Tyrosine Kinase (SYK) inhibition, 33P ATP filtration assay. The test is classed as biochemical. The following applies: SYK aa 360-635 0.5 nM; ATP 20 μM, peptide 5 μM, 0.1% BSA; read-out: SYK_ENZYME_FILTRATION/v1, BSA.
Description: All concentrations were final in the reaction mixture and all incubations were carried at room temperature. […] SYK Assay Information Determination of IC50 of Spleen Tyrosine Kinase (SYK) Inhibition:
SYK kinase assay is a standard kinase assay adapted to a 96 well plate format. This assay is performed in 96-well format for IC50 determination with 8 samples which represented 10 half log dilutions and a 40 μL reaction volume. The assay measures the incorporation of radiolabeled ^33P γATP into an N-terminally biotinylated peptide substrate, derived from naturally occurring phosphoacceptor consensus sequence (Biotin-11aa DY*E). […] Experimental Method:
DMSO and the mixture was incubated for 10 min at RT.
The kinase reaction was initiated by the addition of 10 μL 4× substrate cocktail containing the DYE peptide substrate [0 or 5 μM], ATP [20 μM] and ^33PγATP [2 μCi/r×n]. After incubation at 30° C. for 15 min, the reaction was terminated by the transfer of 25 μL pf the reaction sample to a 96 well 0.65 μm Millipore MADVNOB membrane/plate containing 200 μL 5 mM EDTA and 20% Streptavidine coated beads in PBS.
The unbound radionucleotides were washed under vacuum with 3×250 μL 2M NaCl; 2×250 μL 2M NaCl+1% phosphoric acid; 1×250 μL H2O. After the last wash membrane/plates were transferred to an adaptor plate, heat dried for 15 min at 60° C., and 50 μL scintillation cocktail was added to each well and 4 h later the amount of radioactivity was counted in a top counter.

Molecules are shown by their SMILES. pIC50: −log10 of the molar value. Where “and” joins values, the source holds several entries; their conditions need not be identical. Equal values may be shown once.

T1 sequence (P52333 822-1111 limits assumed): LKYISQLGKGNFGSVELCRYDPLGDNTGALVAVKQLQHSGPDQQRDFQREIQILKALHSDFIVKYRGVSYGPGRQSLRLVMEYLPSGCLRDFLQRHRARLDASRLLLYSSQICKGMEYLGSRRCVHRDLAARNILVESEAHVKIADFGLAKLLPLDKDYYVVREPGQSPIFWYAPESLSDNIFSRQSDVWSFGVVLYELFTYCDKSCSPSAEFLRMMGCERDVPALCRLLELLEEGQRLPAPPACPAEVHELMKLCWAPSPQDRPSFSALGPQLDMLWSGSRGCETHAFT

`CC(CCCC(C)(C)O)NC(=O)c1c[nH]c2ncc(-c3nn(C)c4cc(Cl)ccc34)nc12` (centres unmarked) [Example I-163, 2-(6-Chloro-1-methyl-1H-indazol-3-yl)-5H-pyrrolo[2,3-b]pyrazine-7-carboxylic acid (5-hydroxy-1,5-dimethyl-hexyl)-amide]: the pIC50 in test [1] was 7.09; in test [2], 6.45.

As to `COC[C@H](C)NC(=O)c1c[nH]c2ncc(-c3nn(C)c4cc(Cl)ccc34)nc12` [Example I-165, 2-(6-Chloro-1-methyl-1H-indazol-3-yl)-5H-pyrrolo[2,3-b]pyrazine-7-carboxylic acid ((S)-2-methoxy-1-methyl-ethyl)-amide], the pIC50 in test [1] is 8.94; in test [2], 7.77.

Turning to `Cn1nc(-c2cnc3[nH]cc(C(=O)N[C@@H]4CCCN(CC(F)(F)F)C4)c3n2)c2ccc(Cl)cc21` [Example I-168, 2-(6-Chloro-1-methyl-1H-indazol-3-yl)-5H-pyrrolo[2,3-b]pyrazine-7-carboxylic acid [(R)-1-(2,2,2-trifluoro-ethyl)-piperidin-3-yl]-amide], the pIC50 is 6.93 in test [1] and 5.43 in test [2].

For the compound `Cn1nc(-c2cnc3[nH]cc(C(=O)NC4CCCC(N)C4)c3n2)c2ccc(Cl)cc21` (centres unmarked) [Example I-169, 2-(6-Chloro-1-methyl-1H-indazol-3-yl)-5H-pyrrolo[2,3-b]pyrazine-7-carboxylic acid (3-amino-cyclohexyl)-amide], the figures for the pIC50 in test [1] and in test [2] were 6.41 and 7.92, respectively.

Take `CC(O)C(C)NC(=O)c1c[nH]c2ncc(-c3nn(C)c4cc(Cl)ccc34)nc12` (centres unmarked) [Example I-172, 2-(6-Chloro-1-methyl-1H-indazol-3-yl)-5H-pyrrolo[2,3-b]pyrazine-7-carboxylic acid (2-hydroxy-1-methyl-propyl)-amide]: the pIC50 in test [1] was 8.33; in test [2], 7.87.

As for `COC[C@@H](NC(=O)c1c[nH]c2ncc(-c3nn(C)c4cc(F)ccc34)nc12)[C@@H](C)O` [Example I-177, 2-(6-Fluoro-1-methyl-1H-indazol-3-yl)-5H-pyrrolo[2,3-b]pyrazine-7-carboxylic acid ((1R,2R)-2-hydroxy-1-methoxymethyl-propyl)-amide], the pIC50 is 7.09 in test [1] and 6.15 in test [2].

Regarding `CC[C@H](C)NC(=O)c1c[nH]c2ncc(-c3nn(C)c4cc(F)ccc34)nc12` [Example I-178, 2-(6-Fluoro-1-methyl-1H-indazol-3-yl)-5H-pyrrolo[2,3-b]pyrazine-7-carboxylic acid ((S)-sec-butyl)-amide], the figures for the pIC50 in test [1] and in test [2] were 8.72 and 8.34, respectively.

Take `COC[C@H](CC(C)C)NC(=O)c1c[nH]c2ncc(-c3nn(C)c4cc(F)ccc34)nc12` [Example I-179, 2-(6-Fluoro-1-methyl-1H-indazol-3-yl)-5H-pyrrolo[2,3-b]pyrazine-7-carboxylic acid ((S)-1-methoxymethyl-3-methyl-butyl)-amide]: the pIC50 is 8.23 in test [1] and 6.83 in test [2].

For `CC(CC(C)(C)O)NC(=O)c1c[nH]c2ncc(-c3nn(C)c4cc(F)ccc34)nc12` (centres unmarked) [Example I-183, 2-(6-Fluoro-1-methyl-1H-indazol-3-yl)-5H-pyrrolo[2,3-b]pyrazine-7-carboxylic acid (3-hydroxy-1,3-dimethyl-butyl)-amide], the figures for the pIC50 in test [1] and in test [2] were 7.10 and 6.79, respectively.

On to `CCCC(C)NC(=O)c1c[nH]c2ncc(-c3nn(C)c4cc(F)ccc34)nc12` (centres unmarked) [Example I-184, 2-(6-Fluoro-1-methyl-1H-indazol-3-yl)-5H-pyrrolo[2,3-b]pyrazine-7-carboxylic acid (1-methyl-butyl)-amide], for which the pIC50 was 8.30 in test [1] and 7.43 in test [2].

For `COC[C@@H](NC(=O)c1c[nH]c2ncc(-c3nn(C)c4cc(F)ccc34)nc12)[C@H](C)O` [Example I-188, 2-(6-Fluoro-1-methyl-1H-indazol-3-yl)-5H-pyrrolo[2,3-b]pyrazine-7-carboxylic acid ((1R,2S)-2-hydroxy-1-methoxymethyl-propyl)-amide], the pIC50 is 7.50 in test [1] and 6.77 in test [2].

`COC[C@@H](NC(=O)c1c[nH]c2ncc(-c3nn(C)c4cc(F)ccc34)nc12)[C@H](C)OC` [Example I-189, 2-(6-Fluoro-1-methyl-1H-indazol-3-yl)-5H-pyrrolo[2,3-b]pyrazine-7-carboxylic acid ((1R,2S)-2-methoxy-1-methoxymethyl-propyl)-amide]: the results for the pIC50 in test [1] and in test [2] were 7.73 and 6.61, respectively.

With `Cn1nc(-c2cnc3[nH]cc(C(=O)NC(CO)C4CCCO4)c3n2)c2ccc(F)cc21` (centres unmarked) [Example I-190, 2-(6-Fluoro-1-methyl-1H-indazol-3-yl)-5H-pyrrolo[2,3-b]pyrazine-7-carboxylic acid [2-hydroxy-1-(tetrahydro-furan-2-yl)-ethyl]-amide], the pIC50 in test [1] was 6.85; in test [2] it was 6.90.

As to `COC[C@H](CCS(C)(=O)=O)NC(=O)c1c[nH]c2ncc(-c3nn(C)c4cc(F)ccc34)nc12` [Example I-192, 2-(6-Fluoro-1-methyl-1H-indazol-3-yl)-5H-pyrrolo[2,3-b]pyrazine-7-carboxylic acid ((S)-3-methanesulfonyl-1-methoxymethyl-propyl)-amide], the pIC50 was 8.73 in test [1] and 6.87 in test [2].

Consider `C[C@@H](COC(F)F)NC(=O)c1c[nH]c2ncc(-c3nn(C)c4cc(F)ccc34)nc12` [Example I-193, 2-(6-Fluoro-1-methyl-1H-indazol-3-yl)-5H-pyrrolo[2,3-b]pyrazine-7-carboxylic acid ((S)-2-difluoromethoxy-1-methyl-ethyl)-amide], for which the pIC50 in test [1] was 9.10; in test [2] it was 6.85.

On to `C[C@@H](O)[C@@H](NC(=O)c1c[nH]c2ncc(-c3nn(C)c4cc(F)ccc34)nc12)C(=O)N1CC(F)C1` [Example I-198, 2-(6-Fluoro-1-methyl-1H-indazol-3-yl)-5H-pyrrolo[2,3-b]pyrazine-7-carboxylic acid [(1R,2R)-1-(3-fluoro-azetidine-1-carbonyl)-2-hydroxy-propyl]-amide], for which the pIC50 in test [1] is 8.79; in test [2] it was 6.92.

For the compound `CC(NC(=O)c1c[nH]c2ncc(-c3nn(C)c4cc(Cl)ccc34)nc12)c1nccn1C` (centres unmarked) [Example I-199, 2-(6-Chloro-1-methyl-1H-indazol-3-yl)-5H-pyrrolo[2,3-b]pyrazine-7-carboxylic acid [1-(1-methyl-1H-imidazol-2-yl)-ethyl]-amide], the pIC50 in test [1] is 6.75; in test [2], 7.19.

For `Cn1nc(-c2cnc3[nH]cc(C(=O)NC4(c5ccc(Br)cc5)CC4)c3n2)c2ccc(F)cc21` [Example I-208, 2-(6-Fluoro-1-methyl-1H-indazol-3-yl)-5H-pyrrolo[2,3-b]pyrazine-7-carboxylic acid [1-(4-bromo-phenyl)-cyclopropyl]-amide], the pIC50 in test [1] was 7.11; in test [2], 5.40 and < 5.00.

Take `COC[C@H](C)NC(=O)c1c[nH]c2ncc(-n3cnc4cc(Cl)ccc43)nc12` [Example I-223, 2-(5-Chloro-benzoimidazol-1-yl)-5H-pyrrolo[2,3-b]pyrazine-7-carboxylic acid ((S)-2-methoxy-1-methyl-ethyl)-amide]: the pIC50 in test [1] is 6.72; in test [2], 6.38.

As to `COC[C@H](C)NC(=O)c1c[nH]c2ncc(-n3cnc4ccc(Cl)cc43)nc12` [Example I-224, 2-(6-Chloro-bcnzoimidazol-1-yl)-5H-pyrrolo[2,3-b]pyrazine-7-carboxylic acid ((S)-2-methoxy-1-methyl-ethyl)-amide], the pIC50 in test [1] is 6.46; in test [2] it was 6.45.

For `COC[C@H](C)NC(=O)c1c[nH]c2ncc(-c3nn(CCN(C)C)c4cc(Cl)ccc34)nc12` [Example I-234, 2-[6-Chloro-1-(2-dimethylamino-ethyl)-1H-indazol-3-yl]-5H-pyrrolo[2,3-b]pyrazine-7-carboxylic acid ((S)-2-methoxy-1-methyl-ethyl)-amide], the pIC50 is 8.54 in test [1] and 7.02 in test [2].

For the compound `COC[C@H](C)NC(=O)c1c[nH]c2ncc(-c3nn(Cc4ccc(N5CCOCC5)nc4)c4cc(F)ccc34)nc12` [Example I-237, 2-[6-Fluoro-1-(6-morpholin-4-yl-pyridin-3-ylmethyl)-1H-indazol-3-yl]-5H-pyrrolo[2,3-b]pyrazine-7-carboxylic acid ((S)-2-methoxy-1-methyl-ethyl)-amide], the values for the pIC50 in test [1] and in test [2] were 9.14 and 7.64, respectively.

In the case of `COC[C@H](C)NC(=O)c1c[nH]c2ncc(-c3nn(Cc4cccnc4)c4cc(F)ccc34)nc12` [Example I-241, 2-(6-Fluoro-1-pyridin-3-ylmethyl-1H-indazol-3-yl)-5H-pyrrolo[2,3-b]pyrazine-7-carboxylic acid ((S)-2-methoxy-1-methyl-ethyl)-amide], the results for the pIC50 in test [1] and in test [2] were 9.39 and 7.69, respectively.

As to `COC[C@H](C)NC(=O)c1c[nH]c2ncc(-c3nn(CCN4CCCC4)c4cc(F)ccc34)nc12` [Example I-242, 2-[6-Fluoro-1-(2-pyrrolidin-1-yl-ethyl)-1H-indazol-3-yl]-5H-pyrrolo[2,3-b]pyrazine-7-carboxylic acid ((S)-2-methoxy-1-methyl-ethyl)-amide], the pIC50 in test [1] was 8.68; in test [2], 6.68.

In the case of `COC[C@H](C)NC(=O)c1c[nH]c2ncc(-c3nn(CCN4CC[C@H](F)C4)c4cc(F)ccc34)nc12` [Example I-243, 2-{6-Fluoro-1-[2-((S)-3-fluoro-pyrrolidin-1-yl)-ethyl]-1H-indazol-3-yl}-5H-pyrrolo[2,3-b]pyrazine-7-carboxylic acid ((S)-2-methoxy-1-methyl-ethyl)-amide], the pIC50 is 8.83 in test [1] and 7.15 in test [2].
